Here are results for one compound from US20230263811A1, “APPLICATION OF C[…] TREATMENT OF CORONAVIRUS INFECTIONS” (ACADEMY OF MILITARY MEDICAL SCIENCES, priority 2020, published 2023).

Holding throughout (type): cell-based
One series relates to SARS-CoV-2. Kind of series: Reduction of viral nucleic acid load of Vero E6 cells infected by SARS-CoV-2 (qRT-PCR of supernatant). The settings on record: for Viral genome copy number (MOI = 0.05): infected supernatant, 48 h, vehicle 2215912896 ± 388319129.
The nature of series [1]: Cytotoxicity test of drug (CCK-8 kit). The note with it: African green monkey, Vero E6 cells. As for the experimental part:
(§1) The detection of the drug cytotoxicity was performed using CCK-8 kit (Beoytime). Specific steps were as follows:
(§2) 1) 1×10^4 Vero E6 (ATCC) cells were placed in a 96-well plate and incubated at 37° C. for 8 hours.
(§3) 2) The drug was diluted with DMSO to an appropriate concentration of mother liquor, and then diluted with MEM medium (purchased from Gibco, Catalog No. 10370021) containing 2% FBS (purchased from Gibco, Catalog No. 16000044) to the same concentration as that for the drug treatment. The original medium in the 96-well plate was discarded, 100 μL of drug-containing MEM medium was added to the cells, and three replicate wells were prepared for each concentration. Negative control (vehicle group, DMSO and medium were added to the cell wells, without adding drug) and blank control (DMSO and medium were added to the wells, without cells) were set up. After the drug was added, the cells were cultured at 37° C. for 48 hours.
(§4) 3) 20 μL of CCK-8 solution (Beoytime) was added to the well to be tested, mixed gently, without generating bubbles, and continuously incubated at 37° C. for 2 hours. OD450 was read on a microplate reader (purchased from Molecular Devices, Model: SpectraMax M5), and cell viability was calculated:
(§5) Cell activity (%)=(A(drug treatment group)−A(blank control))/(A(vehicle control)−A(blank control))=100%
(§6) wherein A was the reading of the microplate reader.

For another series, the system named is Vero E6 cells. Kind of series: Cytotoxicity test of drug (CCK-8 kit). The settings on record: for Cell viability: Vero E6, 48 h. On the procedure: as §1, §2, §3, §4, §5, §6

`C=C(C)[C@@H]1CCC(C)=C[C@H]1c1c(O)cc(CCCCC)cc1O` [cannabidiol, (−)-2-[(3R,4R)-p-mentha-1,8-dien-3β-yl]-5-pentylresorcinol]: the “Viral genome copy number (MOI = 0.05)” value in the series on SARS-CoV-2 (0.04 μM) is recorded as 1853011000 ± 279114748; with SARS-CoV-2 (0.12 μM), 1860569042 ± 365350110; with SARS-CoV-2 (0.37 μM), 1224296104 ± 183149682; with SARS-CoV-2 (1.11 μM) it was 877127896 ± 122398434; in the series on SARS-CoV-2 (3.33 μM) it was 668555500 ± 83251338. In the series with SARS-CoV-2 (48 h after infection of vero E6 cells with SARS-CoV-2 (FIG. 1)), the “Inhibition of viral RNA load on cells” value was “the inhibitory activity was dose-dependent”. In the series with SARS-CoV-2 (Severe acute respiratory syndrome coronavirus 2, Vero C1008, Vero E6 cells, read-out: EC50 against SARS-CoV-2), the EC50 – broadly, the concentration needed to bring the measured effect to its halfway point – was 620 nM. Further, in the series with SARS-CoV-2 (concentrations of 10 μM, 3.3 μM, 1.1 μM and 0.37 μM), the “Inhibition of replication of the SARS-CoV-2 virus genome in the infected supernatant” value is listed as “could effectively inhibit the replication”. The CC50 (commonly the concentration giving 50% cytotoxicity) at 48 h in series [1] amounted to 4100 nM. Besides, the Cell viability worked out at 73.45 ± 7.48% in the series on Vero E6 cells (0.78 μM); 74.22 ± 13.42% in the series on Vero E6 cells (1.56 μM); 58.45 ± 5.30% with Vero E6 cells (3.13 μM); 60.07 ± 6.01% in the series on Vero E6 cells (6.25 μM); 50.01 ± 8.40% with Vero E6 cells (12.5 μM); 38.39 ± 5.70% with Vero E6 cells (25 μM). In addition, the Cell viability was found to be 22.85 ± 18.47% in the series with Vero E6 cells (50 μM) and 8.87 ± 3.59% in the series on Vero E6 cells (100 μM). In addition, the “Change of cell viability” value with Vero E6 cells (concentrations of 1.56 μM and 0.78 μM) is listed as “did not change the cell viability”.
